Test results from ChEMBL document CHEMBL1141401, “Structure-selectivity investigations of D2-like receptor ligands by CoMFA and CoMSIA guiding the discovery of D3 selective PET radioligands” (J Med Chem, 2007).

Key:
D(4) dopamine receptor = molecular target: T1, D(4) dopamine receptor (Homo sapiens, UniProt P21917); assay: biochemical
T1 sequence (P21917 whole entry): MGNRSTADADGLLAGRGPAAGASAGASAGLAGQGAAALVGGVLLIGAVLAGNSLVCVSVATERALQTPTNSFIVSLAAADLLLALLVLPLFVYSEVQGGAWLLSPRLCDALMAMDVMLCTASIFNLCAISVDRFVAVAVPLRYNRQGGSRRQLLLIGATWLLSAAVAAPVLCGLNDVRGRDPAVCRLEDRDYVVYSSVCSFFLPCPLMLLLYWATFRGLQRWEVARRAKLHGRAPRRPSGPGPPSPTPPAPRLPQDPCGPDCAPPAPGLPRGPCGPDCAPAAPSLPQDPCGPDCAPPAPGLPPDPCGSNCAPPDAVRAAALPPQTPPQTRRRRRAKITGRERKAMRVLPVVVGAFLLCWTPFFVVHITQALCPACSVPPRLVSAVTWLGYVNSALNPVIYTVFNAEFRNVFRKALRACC
Description: Displacement of [3H]spiperone from human dopamine D4.4 expressed in CHO cell membrane

D(2) dopamine receptor [1] = molecular target: T2, D(2) dopamine receptor (Homo sapiens, UniProt P14416)
T2 sequence (P14416 whole entry): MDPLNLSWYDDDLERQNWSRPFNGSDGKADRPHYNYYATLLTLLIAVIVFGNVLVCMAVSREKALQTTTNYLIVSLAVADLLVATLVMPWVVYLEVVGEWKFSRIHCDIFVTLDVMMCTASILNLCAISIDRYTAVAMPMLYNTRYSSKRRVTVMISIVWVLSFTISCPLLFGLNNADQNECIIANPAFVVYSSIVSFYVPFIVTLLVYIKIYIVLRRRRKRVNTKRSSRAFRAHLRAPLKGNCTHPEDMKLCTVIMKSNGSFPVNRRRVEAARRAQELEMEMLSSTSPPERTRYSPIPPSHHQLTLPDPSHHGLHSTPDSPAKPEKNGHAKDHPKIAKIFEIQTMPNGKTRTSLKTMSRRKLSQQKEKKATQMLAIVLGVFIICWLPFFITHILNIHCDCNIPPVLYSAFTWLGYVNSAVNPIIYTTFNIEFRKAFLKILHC
Description: Binding affinity to dopamine D2

D(3) dopamine receptor [2] = molecular target: T3, D(3) dopamine receptor (Homo sapiens, UniProt P35462); assay: biochemical
T3 sequence (P35462 whole entry): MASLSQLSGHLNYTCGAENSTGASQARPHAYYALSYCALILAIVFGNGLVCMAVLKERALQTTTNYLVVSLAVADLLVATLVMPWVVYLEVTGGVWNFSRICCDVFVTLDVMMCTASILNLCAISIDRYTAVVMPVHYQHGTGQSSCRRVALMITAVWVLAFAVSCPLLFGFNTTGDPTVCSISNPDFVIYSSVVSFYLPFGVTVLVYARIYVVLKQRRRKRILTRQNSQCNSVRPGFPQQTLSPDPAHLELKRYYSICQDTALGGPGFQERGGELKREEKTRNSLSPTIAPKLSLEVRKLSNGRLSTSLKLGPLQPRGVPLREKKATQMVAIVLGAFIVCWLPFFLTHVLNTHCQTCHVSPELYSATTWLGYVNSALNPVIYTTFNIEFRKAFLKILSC
Description: (§1) Displacement of [3H]spiperone from human dopamine D3 expressed in CHO cell membrane

D(3) dopamine receptor [3] = molecular target: T3, D(3) dopamine receptor
Description: as §1

[4] = molecular target: T4, 5-hydroxytryptamine receptor 1A (Homo sapiens, UniProt P08908); assay: Displacement of [3H]8-OH-DPAT from human 5HT1A receptor expressed in CHO cells; format: cell-based
T4 sequence (P08908 whole entry): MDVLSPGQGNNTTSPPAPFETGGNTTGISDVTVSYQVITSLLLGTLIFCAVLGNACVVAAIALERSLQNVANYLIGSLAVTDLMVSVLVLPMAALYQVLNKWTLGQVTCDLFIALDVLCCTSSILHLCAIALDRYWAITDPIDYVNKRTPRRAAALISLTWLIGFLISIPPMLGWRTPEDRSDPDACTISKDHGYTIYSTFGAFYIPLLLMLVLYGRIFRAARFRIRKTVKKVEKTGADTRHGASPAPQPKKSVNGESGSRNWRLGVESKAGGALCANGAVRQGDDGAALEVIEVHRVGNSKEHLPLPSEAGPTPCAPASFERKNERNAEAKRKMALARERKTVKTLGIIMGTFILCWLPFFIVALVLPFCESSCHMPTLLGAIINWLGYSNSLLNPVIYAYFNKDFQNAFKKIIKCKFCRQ

[5] = molecular target: Serotonin 2 (5-HT2) receptor (Homo sapiens, UniProt P41595+P28223+P28335); assay: Displacement of [3H]ketanserin from human 5HT2 receptor expressed in CHO cells; format: cell-based
D(2) dopamine receptor [6] = molecular target: T2, D(2) dopamine receptor; assay: Displacement of [3H]spiperone from human dopamine D2(short) expressed in CHO cell membrane
D(1A) dopamine receptor = D(1A) dopamine receptor (Sus scrofa, UniProt P50130); assay: Displacement of [3H][…] from porcine dopamine D1 in porcine striatal membrane; format: cell membranes, Striatum
Sequence of D(1A) dopamine receptor (P50130 whole entry): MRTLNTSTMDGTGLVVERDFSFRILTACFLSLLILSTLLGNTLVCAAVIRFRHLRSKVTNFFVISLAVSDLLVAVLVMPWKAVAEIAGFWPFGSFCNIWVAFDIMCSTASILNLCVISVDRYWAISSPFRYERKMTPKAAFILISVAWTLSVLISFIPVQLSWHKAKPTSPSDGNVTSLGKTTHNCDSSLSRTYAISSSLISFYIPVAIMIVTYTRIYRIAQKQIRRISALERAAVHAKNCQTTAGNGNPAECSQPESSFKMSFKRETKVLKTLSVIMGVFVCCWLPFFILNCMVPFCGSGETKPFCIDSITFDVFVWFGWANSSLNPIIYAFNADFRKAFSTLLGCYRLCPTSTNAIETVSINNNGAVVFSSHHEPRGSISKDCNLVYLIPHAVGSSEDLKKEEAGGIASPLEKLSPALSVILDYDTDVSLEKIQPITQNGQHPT

D(2) dopamine receptor [7] = molecular target: T2, D(2) dopamine receptor; assay: Displacement of [3H]spiperone from human dopamine D2(long) expressed in CHO cell membrane

SMILES	Ki (D(4) dopamine receptor)	Ki (D(2) dopamine receptor [1])	Ki (D(3) dopamine receptor [2])	further results
COc1ccccc1N1CCN(CCCCCNC(=O)c2nnn(Cc3ccccc3)c2C)CC1	158 nM	9.33 nM	15.8 nM	
COc1ccccc1N1CCN(CCCCCNC(=O)c2nnn(Cc3ccccc3Br)c2C)CC1	41.7 nM	4.9 nM	15.1 nM	
CCCc1c(C(=O)NCCCCN2CCN(c3ccccc3OC)CC2)nnn1Cc1ccccc1Br	75.9 nM	21.9 nM	3.47 nM	
O=C(NCCCCN1CCN(c2cccc(Cl)c2Cl)CC1)c1cc2cc(Br)ccc2o1	3090 nM	10000 nM	3.47 nM	
COc1ccccc1N1CCN(CCCCNC(=O)c2cc3cc(Br)ccc3o2)CC1	17 nM	95.5 nM		Ki (D(3) dopamine receptor [3]): 0.692 nM
c1ccc(C2CCN(Cc3cnn(-c4ccccc4)c3)CC2)cc1	0.589 nM	38 nM	33.1 nM	
COc1ccccc1N1CCN(CCCCNC(=O)c2cc3cc(Br)ccc3[nH]2)CC1	15.8 nM	110 nM	0.245 nM	
Cc1cccc2c(CN3CCN(c4ccc(Cl)cc4)CC3)cnn12			3720 nM	
O=C(NCCCCN1CCN(c2ccccc2Cl)CC1)c1ccc(-c2ccccc2)cc1	240 nM	129 nM	0.28 nM	
O=C(NCCCCN1CCN(c2cccc(Cl)c2Cl)CC1)c1cc2cc(Br)ccc2[nH]1	603 nM	2290 nM	0.741 nM	
N#Cc1ccc2cc(C(=O)NCCCCN3CCN(c4cccc(Cl)c4Cl)CC3)[nH]c2c1	631 nM	339 nM	0.355 nM	
O=C(NCCCCN1CCN(c2ccccc2Cl)CC1)c1ccc(Cl)cc1	282 nM	468 nM	1.7 nM	
COc1ccccc1N1CCN(CCCCNC(=O)c2ccc(-c3ccc([18F])nc3)cc2)CC1	34 nM		0.45 nM	Ki [4]: 21 nM; Ki [5]: 760 nM; Ki (D(2) dopamine receptor [6]): 12 nM; Ki (D(1A) dopamine receptor): 1300 nM; Ki (D(2) dopamine receptor [7]): 15 nM
COc1ccc(Cn2nnc(C(=O)NCCCCN3CCN(c4ccccc4OC)CC3)c2C)cc1	282 nM	55 nM	28.8 nM	
COc1ccccc1N1CCN(CCCCNC(=O)c2nnn(Cc3ccccc3)c2C)CC1	977 nM	229 nM	67.6 nM	
OCc1ccc2c(CN3CCN(c4ccc(Cl)cc4)CC3)cnn2c1	19.5 nM	27500 nM		
COc1ccccc1N1CCN(CCCCNC(=O)c2cc3cc(C#N)ccc3o2)CC1			4.27 nM	
C#Cc1ccc2sc(C(=O)NCCCCN3CCN(c4ccccc4OC)CC3)cc2c1	30.9 nM	407 nM	0.389 nM	
COc1ccccc1N1CCN(CCCCNC(=O)c2cc3cc(C#N)ccc3[nH]2)CC1	24 nM	141 nM	0.575 nM	
COc1ccccc1N1CCN(CCCCNC(=O)c2cc3cc(C#N)ccc3s2)CC1	44.7 nM	67.6 nM		Ki (D(3) dopamine receptor [3]): 0.457 nM
COc1ccccc1N1CCN(CCCCNC(=O)c2nnn(Cc3ccccc3Br)c2C)CC1	91.2 nM	61.7 nM	32.4 nM	
COc1ccc(Cn2nnc(C(=O)NCCCCCN3CCN(c4cccc(Cl)c4Cl)CC3)c2C)cc1	288 nM	9.12 nM	33.9 nM	
CCCc1c(C(=O)NCCCCN2CCN(c3ccccc3OC)CC2)nnn1Cc1ccc(OC)cc1	129 nM	42.7 nM	12.9 nM	
c1ccc(C2CCN(Cc3cn(-c4ccccc4)nn3)CC2)cc1	3.24 nM	219 nM	93.3 nM	
C#Cc1ccc2cc(C(=O)NCCCCN3CCN(c4ccccc4OC)CC3)sc2c1	151 nM	200 nM	0.38 nM	
Cc1c(C(=O)NCCCCN2CCN(c3cccc(Cl)c3Cl)CC2)nnn1Cc1ccccc1	282 nM	38.9 nM	4.27 nM	

Further lines, with some results ahead:

Ki (D(4) dopamine receptor)	Ki (D(2) dopamine receptor [1])	Ki (D(3) dopamine receptor [2])	SMILES	further results
200 nM	457 nM	1 nM	O=C(NCCCCN1CCN(c2ccccc2Cl)CC1)c1ccc2ccccc2c1	
251 nM	10 nM	8.51 nM	Cc1c(C(=O)NCCCCCN2CCN(c3cccc(Cl)c3Cl)CC2)nnn1Cc1ccccc1	
219 nM	14.1 nM	2.4 nM	CCCc1c(C(=O)NCCCCN2CCN(c3cccc(Cl)c3Cl)CC2)nnn1Cc1ccccc1	
	7590 nM	2690 nM	Clc1ccc(N2CCN(Cc3cnn4c(I)cccc34)CC2)cc1	
39.8 nM	5.25 nM	7.41 nM	CCCc1c(C(=O)NCCCCCN2CCN(c3ccccc3OC)CC2)nnn1Cc1ccccc1Br	
28 nM		0.37 nM	COc1ccccc1N1CCN(CCCCNC(=O)c2ccc(-c3cccc([18F])n3)cc2)CC1	Ki [4]: 16 nM; Ki [5]: 450 nM; Ki (D(2) dopamine receptor [6]): 16 nM; Ki (D(1A) dopamine receptor): 870 nM; Ki (D(2) dopamine receptor [7]): 27 nM
		0.661 nM	O=C(NCCCCN1CCN(c2cccc(Cl)c2Cl)CC1)c1cc2ccccc2[nH]1	
302 nM	57.5 nM	11 nM	CCCc1c(C(=O)NCCCCN2CCN(c3ccccc3OC)CC2)nnn1Cc1ccccc1	
39.8 nM	158 nM		COc1ccccc1N1CCN(CCCCNC(=O)c2cc3ccc(C#N)cc3[nH]2)CC1	Ki (D(3) dopamine receptor [3]): 0.251 nM
170 nM	282 nM	3.09 nM	COc1ccc(C(=O)NCCCCN2CCN(c3ccccc3Cl)CC2)cc1OC	
269 nM	17 nM	87.1 nM	COc1ccc(Cn2nnc(C(=O)NCCCCCN3CCN(c4ccccc4OC)CC3)c2C)cc1	
